The values that follow come from publication PMC11206029, “Identification and Characterization of Cannabichromene’s Major Metabolite Following Incubation with Human Liver Microsomes” (Metabolites, 2024).

Data set [1] has as its target human recombinant CB2R (Homo sapiens, UniProt P34972). Description: Competitive radioligand binding assay, displacement of [^3H]CP 55,940. As to conditions: for Hill Slope: CB2R, means ± S.E.M. of four to ten experiments.
Data set [2] addresses human recombinant CB1R (Homo sapiens, UniProt P21554). Description: biochemical. It is filed as binding.
Data set [3] has as its system microglia. More on the design: method as in PMID 38477310. As to conditions: microglia following lipopolysaccharide challenge; cited from earlier work.
Data set [4] in a line: Incubation of CBC with pooled human liver microsomes, metabolite identification. It is filed as in vitro ADME. The method, then:
To maximize the yield of CBC metabolites, parameters including incubation time, HLM protein concentration, and CBC concentration were optimized, and representative extracted ion chromatograms are available in the Supplementary Materials (Section S1.2). The parameters resulting in the highest yield of metabolites were determined to be 0.5 mg/mL HLM, 50 µg/mL CBC, and a 40 min incubation time. Prior to adding the drug, the NADPH-generating system was incubated on a shaker set to 150 rpm at a temperature of 37 ± 2 °C for 10 min (C24 Incubator Shaker, New Brunswick Scientific, Edison, NJ, USA). […]
The HPLC components for the semi-preparative isolation of the major CBC metabolite were as follows: G1322A degasser, G1312A binary pump, G1329B 1260 ALS, G1315B DAD, G1364B fraction collector (all Agilent Technologies, Santa Clara, CA, USA), and an external column compartment ThermaSphere (Phenomenex, Torrance, CA, USA). […] UV absorbance was monitored at 210 nm and 231 nm. […] Isolated metabolites and controls were analyzed utilizing both LC-MS/MS and GC-MS/MS as described below. […]
Samples were derivatized and analyzed using GC-MS/MS based on the previous literature. […] Samples were cooled, transferred to autosampler vials and immediately analyzed via GC-MS/MS. […]
(Liver microsomes are a subcellular fraction often used to study metabolism.)

On the set-up of data set [5]: method as in PMID 1806943. As to conditions: hamster-derived liver microsomes; cited from earlier work.
On the set-up of data set [6]: method as in PMID 1806943. As to conditions: cat-derived liver microsomes; cited from earlier work.
Details of data set [7]: method as in PMID 37574147. As to conditions: human hepatic biotransformation; cited from earlier work.
Details of data set [8]: method as in PMID 1806943. As to conditions: gerbil-derived liver microsomes; cited from earlier work.

Where two headings read alike, the source gives them in different places. Where only a bound is given, the exact number is not on record here.

Sequence of human recombinant CB1R (P21554 whole entry): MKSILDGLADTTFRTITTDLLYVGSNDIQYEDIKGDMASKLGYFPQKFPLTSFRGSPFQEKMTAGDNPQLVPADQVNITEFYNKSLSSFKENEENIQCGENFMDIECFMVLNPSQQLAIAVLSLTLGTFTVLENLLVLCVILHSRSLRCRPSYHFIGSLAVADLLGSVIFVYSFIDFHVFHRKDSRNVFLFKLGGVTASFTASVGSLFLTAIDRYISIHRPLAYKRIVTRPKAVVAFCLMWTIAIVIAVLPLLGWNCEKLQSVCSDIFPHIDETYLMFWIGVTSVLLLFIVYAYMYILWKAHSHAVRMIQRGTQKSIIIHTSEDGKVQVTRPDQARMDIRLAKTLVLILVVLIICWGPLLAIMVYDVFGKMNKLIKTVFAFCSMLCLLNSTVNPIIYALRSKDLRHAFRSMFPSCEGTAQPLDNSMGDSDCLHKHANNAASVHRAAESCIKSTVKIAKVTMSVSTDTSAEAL
Sequence of human recombinant CB2R (P34972 whole entry): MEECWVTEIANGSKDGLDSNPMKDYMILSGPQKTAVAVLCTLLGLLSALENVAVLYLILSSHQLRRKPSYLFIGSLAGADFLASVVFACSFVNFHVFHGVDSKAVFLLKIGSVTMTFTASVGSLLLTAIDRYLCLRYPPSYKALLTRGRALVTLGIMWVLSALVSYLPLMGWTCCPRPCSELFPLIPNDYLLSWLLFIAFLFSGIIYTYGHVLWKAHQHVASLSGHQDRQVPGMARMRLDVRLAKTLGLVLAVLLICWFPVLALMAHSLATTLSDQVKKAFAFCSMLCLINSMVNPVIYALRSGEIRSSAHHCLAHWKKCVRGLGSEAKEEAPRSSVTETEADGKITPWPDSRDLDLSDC

Take `CCCCCc1cc2c3c(c1)OC(C)(C)C1CCC(C)(CC31)O2` (stereo not drawn) [CBT-C, cannabicitran, reference compound]: in data set [1], the Ki (usually the dissociation constant of the complex between target and ligand, obtained from inhibition or displacement) was 4.2 ± 0.41 µM; the “Hill Slope” value is listed as −1.15 ± 0.14. For the same compound, the Ki in data set [2] was > 10 µM.

On to `CCCCCc1cc(O)c2c(c1)OC(C)(CC/C=C(\C)CO)C=C2` (stereo not drawn) [8′-hydroxy-CBC], for which the “Inflammatory phenotype by nitric oxide production” value in data set [3] is on record as “pro-inflammatory”.

Consider `CCCCCc1cc(O)c2c(c1)OC(C)(CCC=C(C)C)C=C2` (stereo not drawn) [CBC, Cannabichromene], for which the “Major metabolite generated by HLMs” value in data set [4] (0.5 mg/mL HLM, 50 µg/mL CBC, 40 min incubation, NADPH-generating system) is on record as 2′-hydroxycannabicitran. In addition, the “Formation of carboxylic acid metabolites” value in data set [4] (incubation with HLM, optimized conditions) is recorded as “did not observe any carboxylic acid metabolites”. For the same compound, the results for the “Epoxidation across the alkene on the branched aliphatic chain, share of the total amount of metabolites generated” value in data set [5], in data set [6] and in data set [8] were 10%, 42% and 12%, respectively. Also, the Ki in data set [1] is 0.301 ± 0.072 µM; in data set [2], 3.5 ± 1.2 µM. The “Hill Slope” value was −1.32 ± 0.36 in data set [1] and −0.27 ± 0.51 in data set [2] (CB1R, means ± S.E.M. of four to ten experiments). Also, the “Hydroxylation, share of all CBC metabolites produced” value in data set [7] was 31%. For the same compound, the “Monoglucuronides, share of all CBC metabolites produced” value in data set [7] is listed as ~50%.

As to `CCCCCc1cc(O)c2c(c1)OC(C)(CCC(O)C(C)(C)O)C=C2` (stereo not drawn) [6′, 7′-dihydroxy-CBC], in data set [3], the “Inflammatory phenotype by nitric oxide production” value is “reduction in nitric oxide production”.

Consider `CCCCCc1cc2c3c(c1)OC1(C)CCC(C3C1O)C(C)(C)O2` (stereo not drawn) [2′-hydroxycannabicitran], for which the Ki in data set [1] and in data set [2] was > 10 µM each time.
